Results as given in US20050282743A1, “Molecular interactions in cells” (Arbor Vita Corporation, priority 2001, published 2005).
Values joined by “and” are separate entries in the source; they are usually repeats but may differ in a detail not shown here. Identical values can stand only once. Like-named read-outs stand apart in the source and are kept apart here. One block for each compound: values may come before it. Peptide text beside a SMILES is read from it. * marks the point of attachment. Biotin = O=C1N[C@H]2[C@H](CS[C@H]2CCCCC(=O)*)N1

Columns and labels:
Format in all cases: binding
[1] = target: T1, PDZ-domain polypeptide (GST/PDZ fusion protein) (Homo sapiens, UniProt Q8TEW0); assay: Apparent affinity (Kd) by titration of PL peptide in the G assay; details: PDZ PAR3, PDZ Domain 3
T1 construct: made in house; host or cells: E. coli (DH5alpha, BL21 or JM109)
T1 sequence (Q8TEW0 whole entry, the tested form may be a part): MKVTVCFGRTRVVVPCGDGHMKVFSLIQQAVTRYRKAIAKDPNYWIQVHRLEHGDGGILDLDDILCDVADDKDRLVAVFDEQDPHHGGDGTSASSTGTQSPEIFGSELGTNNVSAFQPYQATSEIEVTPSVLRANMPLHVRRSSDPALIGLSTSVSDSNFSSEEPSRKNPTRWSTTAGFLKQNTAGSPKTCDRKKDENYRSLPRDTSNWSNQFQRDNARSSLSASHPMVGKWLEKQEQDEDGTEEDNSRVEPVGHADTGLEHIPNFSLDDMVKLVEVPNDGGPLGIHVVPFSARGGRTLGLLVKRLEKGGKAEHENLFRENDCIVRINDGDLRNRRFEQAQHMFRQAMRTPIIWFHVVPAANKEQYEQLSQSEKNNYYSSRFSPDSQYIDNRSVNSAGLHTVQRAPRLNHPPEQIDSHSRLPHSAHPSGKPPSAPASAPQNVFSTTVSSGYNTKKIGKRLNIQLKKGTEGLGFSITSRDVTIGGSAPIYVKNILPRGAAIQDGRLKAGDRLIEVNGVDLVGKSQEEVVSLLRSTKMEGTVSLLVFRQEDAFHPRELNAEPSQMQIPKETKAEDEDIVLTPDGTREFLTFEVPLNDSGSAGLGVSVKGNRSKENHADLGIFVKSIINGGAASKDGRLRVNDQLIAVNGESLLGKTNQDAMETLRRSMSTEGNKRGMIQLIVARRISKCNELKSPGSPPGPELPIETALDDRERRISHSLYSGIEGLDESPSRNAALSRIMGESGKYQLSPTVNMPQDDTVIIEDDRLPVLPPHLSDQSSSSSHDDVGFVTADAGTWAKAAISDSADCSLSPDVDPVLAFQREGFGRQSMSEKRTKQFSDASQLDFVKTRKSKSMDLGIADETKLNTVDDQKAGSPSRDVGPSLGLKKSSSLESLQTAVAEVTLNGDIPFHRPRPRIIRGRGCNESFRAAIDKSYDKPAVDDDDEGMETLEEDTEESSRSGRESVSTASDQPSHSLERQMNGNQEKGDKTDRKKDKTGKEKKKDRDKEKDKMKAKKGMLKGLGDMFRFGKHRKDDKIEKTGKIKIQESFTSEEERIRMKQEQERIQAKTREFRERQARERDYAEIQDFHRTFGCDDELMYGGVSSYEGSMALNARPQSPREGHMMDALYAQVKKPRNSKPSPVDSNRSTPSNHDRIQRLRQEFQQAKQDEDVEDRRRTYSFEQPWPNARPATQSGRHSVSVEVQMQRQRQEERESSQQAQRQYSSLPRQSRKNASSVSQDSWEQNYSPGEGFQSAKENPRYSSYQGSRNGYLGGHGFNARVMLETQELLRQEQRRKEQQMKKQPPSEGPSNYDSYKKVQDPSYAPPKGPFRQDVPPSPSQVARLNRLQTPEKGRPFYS
Summary of the method: (§1)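 A fixed concentration of GST/PDZ fusion protein, 5 ug/ml by default, was mixed in solution with increasing labeled PL peptide (e.g. 0.1 uM-1 mM). Reaction times ranged from 10 minutes to 2 days at 4-37° C. Complexes were separated from free peptide and detected via the label as in the G assay, apparent affinity coming from the saturating concentration.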

[2] = target: T2, PDZ-domain polypeptide (GST/PDZ fusion protein) (Homo sapiens, UniProt P78352); assay: as above
T2 construct: made in house; host or cells: E. coli (DH5alpha, BL21 or JM109)
T2 sequence (P78352 whole entry, the tested form may be a part): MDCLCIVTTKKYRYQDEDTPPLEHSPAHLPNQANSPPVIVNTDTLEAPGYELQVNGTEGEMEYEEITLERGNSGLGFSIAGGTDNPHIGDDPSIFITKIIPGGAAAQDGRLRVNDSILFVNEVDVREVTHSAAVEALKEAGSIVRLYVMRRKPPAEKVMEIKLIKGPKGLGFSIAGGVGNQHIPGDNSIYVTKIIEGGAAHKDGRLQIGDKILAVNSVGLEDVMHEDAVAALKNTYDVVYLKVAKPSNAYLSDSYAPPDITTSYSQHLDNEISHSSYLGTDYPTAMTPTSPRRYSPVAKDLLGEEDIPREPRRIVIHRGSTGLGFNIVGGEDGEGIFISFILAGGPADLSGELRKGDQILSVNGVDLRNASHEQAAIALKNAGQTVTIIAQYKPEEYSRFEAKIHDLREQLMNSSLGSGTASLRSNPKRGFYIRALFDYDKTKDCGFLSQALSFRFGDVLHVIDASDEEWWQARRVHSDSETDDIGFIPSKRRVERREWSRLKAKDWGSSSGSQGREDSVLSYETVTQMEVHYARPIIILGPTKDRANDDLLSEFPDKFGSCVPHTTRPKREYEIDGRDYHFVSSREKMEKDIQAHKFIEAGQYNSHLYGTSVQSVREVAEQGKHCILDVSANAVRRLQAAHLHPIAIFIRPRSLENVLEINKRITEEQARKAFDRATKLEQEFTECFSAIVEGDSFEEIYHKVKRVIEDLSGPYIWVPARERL
Summary of the method: as §1

[3] = target: T3, TIP-1 (GST-TIP-1 fusion) (Homo sapiens, UniProt O14907, I73S); assay: G assay peptide titration, dissociation constants (Example 3, TABLE 4); details: for OD (maximum absorbance) / Kd: biotinylated C-terminal 20-mer, 450 nm, 30 min
T3 construct: made in house; host or cells: E. coli DH5alpha
T3 sequence (O14907 3-123 I73S): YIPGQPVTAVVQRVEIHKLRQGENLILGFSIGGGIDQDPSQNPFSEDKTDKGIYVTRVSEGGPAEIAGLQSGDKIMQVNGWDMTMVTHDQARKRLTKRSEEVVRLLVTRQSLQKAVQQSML
Experimental: (§2) Binding between these molecules was assessed using a modified ELISA. Briefly, a GST-TIP-1 fusion was produced that contained the entire PDZ domain of human TIP-1 (Insert as in EXAMPLE 2). In addition, biotinylated peptides corresponding to the C-terminal 20 amino acids of Tax and CD95 were synthesized and purified by HPLC. Binding between these entities was detected through a colorimetric assay using avidin-HRP to bind the biotin and a peroxidase substrate (G-assay, as described supra). By titrating the amount of peptide and protein added to these reactions, dissociation constants (Kd) were determined as an indication of relative affinity of the peptide and fusion protein association.
(§3) (at last wash leave PBS in wells until immediately adding next step) • 6) Add proteins at 50 ul per well on ice (1 to 2 hrs at 4° C.) • 7) Prepare Peptides in 2% BSA (2 ml/row or /columns) • 8) 3× wash with cold PBS • 9) Add peptides at 50 ul per well on ice (time on/time off)
(§4) Using the protocol for the ‘G’ assay described above, dissociation constants were determined by titrating the amount of peptide against a set concentration of PDZ-containing protein. Kd values were determined by identifying the peptide concentration that gave half-maximal binding to the PDZ protein. Different concentrations of PDZ-containing protein were plated in order to achieve maximal peptide binding values that were less than the absorbance maximum of the ELISA plate reader.
(§5) Proteins on the left are GST fusions to the PDZ domain(s) of protein indicated. Numbers in parenthesis indicate the number of PDZ domains present in the fusion construct, from the amino-terminus of the first number listed to the carboxyl terminus of the second. PDZ Ligands are listed across the top of the table, representing biotinylated peptides corresponding to the carboxy-terminal 20 amino acids of each protein. The first three columns following the PDZ indicate the concentration of fusion protein plated for the G assay, followed by the wavelength and time of reading from addition of TMB substrate. 450 nm indicates a reaction halted by addition of sulfuric acid and absorbance read at 450 nm. Values beneath each ligand indicate first the maximum absorbance followed by the observed Kd in uM. Numbers in the squares are the average of duplicate or quadruplicate reactions. Blank squares indicate that the Kd for the interaction was not tested under those conditions on the same sample plate. No binding to GST alone is observed.

[4] = target: T4, DLG1(1-2) (Homo sapiens, UniProt Q12959); assay: as above; details: biotinylated C-terminal 20-mer, 450 nm, 30 min
T4 construct: made in house; host or cells: E. coli (DH5alpha, BL21 or JM109)
T4 sequence (Q12959 213-413 limits assumed): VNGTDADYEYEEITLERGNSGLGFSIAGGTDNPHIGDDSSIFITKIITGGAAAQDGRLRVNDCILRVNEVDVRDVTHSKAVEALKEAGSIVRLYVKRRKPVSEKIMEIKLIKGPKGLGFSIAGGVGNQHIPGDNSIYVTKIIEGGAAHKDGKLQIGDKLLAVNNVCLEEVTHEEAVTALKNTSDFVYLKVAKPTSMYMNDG
Experimental: as §2, §3, §4, §5

[5] = target: T5, TIP1 (PDZ Domain 1) (Homo sapiens, UniProt O14907); assay: G' assay and Kd titration, TABLE 12; details: A450 nm class of biotinylated PL peptide bound; 0 in conc columns = peptide 10 uM, protein 5 ug/ml
T5 construct: made in house; host or cells: E. coli (DH5alpha, BL21 or JM109)
T5 sequence (O14907 14-116): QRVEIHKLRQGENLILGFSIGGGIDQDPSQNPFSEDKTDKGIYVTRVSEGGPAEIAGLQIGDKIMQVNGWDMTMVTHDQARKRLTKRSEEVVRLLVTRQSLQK
Experimental: The third column labeled “Peptide Optimal Concentration” in the tables is a number reflective of the binding interaction between the PL protein and PDZ protein. […] The column labeled “Protein Optimal Concentration” refers to the protein concentration used to assay PL interaction (in ug/ml); a ‘0’ is indicative of 5 ug/ml protein concentration; any other value represents the concentration (in ug/ml) used to determine the dissociation constant for a given interaction.
Finally, the seventh column labeled “Classification” is another measure of the level of binding. In particular, it provides an absorbance value at 450 nm which indicates the amount of PL peptide bound to the PDZ protein. […]
For convenience, the assay conditions described in this section are referred to as the “G′ assay” and the “G″ assay,” with the specific conditions described in the preceding section on G assays being referred to as the “G^0 assay.” The “G′ assay” is identical to the “G^0 assay” except at step (2) the peptide concentration is 10 uM instead of 20 uM. […] Correspondingly, it slightly increases the certainty that detected interactions are of sufficient affinity and half-life to be of biological importance and useful therapeutic targets.

- Kd ([1]; titration of the PL peptide, read-out: Peptide Optimal Conc (Kd, dissociation constant)): 2000 nM
SMILES: CC[C@H](C)[C@H](NC(=O)[C@H](Cc1ccc(O)cc1)NC(=O)[C@H](CC(C)C)NC(=O)[C@H](CCC(N)=O)NC(=O)[C@H](Cc1c[nH]cn1)NC(=O)[C@H](CO)NC(=O)[C@H](C)NC(=O)[C@H](CC(C)C)NC(=O)[C@@H](NC(=O)[C@H](CC(=O)O)NC(=O)[C@H](CCSC)NC(=O)[C@H](Cc1ccccc1)NC(=O)[C@@H]1CCCN1C(=O)[C@H](CCCNC(=N)N)NC(=O)[C@@H](NC(=O)[C@H](CC(C)C)NC(=O)[C@H](CC(N)=O)NC(=O)[C@H](CC(=O)O)NC(=O)[C@@H](NC(=O)[C@H](CO)NC(=O)CCCC[C@@H]1SC[C@@H]2NC(=O)N[C@@H]21)[C@@H](C)O)C(C)C)[C@@H](C)O)C(=O)O [presenilin-2] (Biotin-STDNLVRPFMDTLASHQLYI-OH; C-terminus assumed)

SMILES: CC[C@H](C)[C@H](NC(=O)[C@H](CO)NC(=O)[C@@H](NC(=O)[C@H](Cc1ccccc1)NC(=O)[C@H](CO)NC(=O)CCCC[C@@H]1SC[C@@H]2NC(=O)N[C@@H]21)[C@@H](C)O)C(=O)N[C@@H](CC(C)C)C(=O)N[C@H](C(=O)N[C@@H](CS)C(=O)N[C@@H](Cc1c[nH]cn1)C(=O)N[C@@H](CCC(N)=O)C(=O)N[C@@H](CCCNC(=N)N)C(=O)N[C@@H](CCCNC(=N)N)C(=O)N[C@H](C(=O)N[C@@H](CCC(N)=O)C(=O)N[C@@H](CCCNC(=N)N)C(=O)N[C@@H](CCCCN)C(=O)N[C@@H](CCC(=O)O)C(=O)N[C@H](C(=O)N[C@H](C(=O)N[C@@H](C)C(=O)O)C(C)C)[C@@H](C)O)[C@@H](C)O)[C@@H](C)O [GluR5-2 (rat)]
- Kd ([2]; PDZ PSD95, PDZ Domain 3, titration of the PL peptide, read-out: Peptide Optimal Conc (Kd, dissociation constant)): 100 nM

SMILES: CC[C@H](C)[C@H](NC(=O)[C@H](CCCCN)NC(=O)[C@@H](NC(=O)[C@H](CO)NC(=O)[C@@H]1CCCN1C(=O)[C@H](Cc1ccccc1)NC(=O)[C@@H](NC(=O)[C@@H](NC(=O)[C@H](CCCNC(=N)N)NC(=O)[C@H](CCC(=O)O)NC(=O)[C@H](CC(C)C)NC(=O)[C@H](CC(C)C)NC(=O)[C@H](CC(C)C)NC(=O)[C@@H](NC(=O)CNC(=O)[C@@H](NC(=O)CCCC[C@@H]1SC[C@@H]2NC(=O)N[C@@H]21)C(C)C)[C@@H](C)O)C(C)C)[C@@H](C)CC)C(C)C)C(=O)N[C@@H](C)C(=O)N[C@H](C(=O)N[C@@H](CC(C)C)C(=O)N[C@H](C(=O)O)C(C)C)[C@@H](C)O [Adenovirus E4 Type9]
- Kd ([2]; PDZ PSD95, PDZ Domain 1, Protein Optimal Conc 5, read-out: Peptide Optimal Conc (Kd by titration of the PL peptide)): 100 nM

- OD (maximum absorbance) ([3]; TIP-1 plated at 0.3 ug/ml): 2.6 and 3.5
- Kd ([3]; TIP-1 plated at 0.3 ug/ml, read-out: Kd): 20000 nM and 25000 nM
- OD (maximum absorbance) ([4]; DLG1(1-2) plated at 0.3 ug/ml): 2.6 and 2.1
- Kd ([4]; DLG1(1-2) plated at 0.3 ug/ml, read-out: Kd): 15000 nM and 20000 nM
SMILES: CC[C@H](C)[C@H](NC(=O)[C@H](CCC(=O)O)NC(=O)[C@H](CC(N)=O)NC(=O)[C@H](CCCNC(=N)N)NC(=O)[C@H](Cc1ccccc1)NC(=O)[C@H](CC(N)=O)NC(=O)[C@H](CO)NC(=O)[C@H](CC(N)=O)NC(=O)[C@H](CCC(=O)O)NC(=O)[C@H](CO)NC(=O)[C@H](CC(=O)O)NC(=O)[C@H](CO)NC(=O)[C@@H](NC(=O)[C@@H](NC(=O)[C@H](CC(=O)O)NC(=O)[C@H](CCCCN)NC(=O)CCCC[C@@H]1SC[C@@H]2NC(=O)N[C@@H]21)[C@@H](C)CC)[C@@H](C)O)C(=O)N[C@@H](CCC(N)=O)C(=O)N[C@@H](CO)C(=O)N[C@@H](CC(C)C)C(=O)N[C@H](C(=O)O)C(C)C [CD95] (Biotin-KDITSDSENSNFRNEIQSLV-OH; C-terminus assumed)

SMILES: CC[C@H](C)[C@H](NC(=O)[C@H](C)NC(=O)[C@H](CC(C)C)NC(=O)[C@H](Cc1c[nH]c2ccccc12)NC(=O)[C@H](Cc1c[nH]cn1)NC(=O)[C@H](CCC(N)=O)NC(=O)[C@H](CC(C)C)NC(=O)[C@H](CCC(N)=O)NC(=O)[C@H](Cc1ccccc1)NC(=O)[C@H](CCC(N)=O)NC(=O)[C@H](CCCNC(=N)N)NC(=O)[C@@H](NC(=O)[C@H](CC(=O)O)NC(=O)[C@H](CCCNC(=N)N)NC(=O)[C@H](CCC(N)=O)NC(=O)[C@H](C)NC(=O)[C@@H](NC(=O)[C@H](CC(C)C)NC(=O)[C@H](Cc1c[nH]cn1)NC(=O)[C@H](Cc1c[nH]cn1)NC(=O)CCCC[C@@H]1SC[C@@H]2NC(=O)N[C@@H]21)C(C)C)[C@@H](C)CC)C(=O)O [noradrenaline transporter] (Biotin-HHLVAQRDIRQFQLQHWLAI-OH; C-terminus assumed)
- Kd ([1]; Peptide Optimal Conc (Kd by titration of the PL peptide)): 600 nM

SMILES: CC(C)C[C@H](NC(=O)[C@H](C)NC(=O)[C@@H](NC(=O)[C@@H](NC(=O)[C@H](Cc1c[nH]cn1)NC(=O)[C@H](CC(C)C)NC(=O)CNC(=O)[C@H](CCC(N)=O)NC(=O)CNC(=O)CNC(=O)[C@H](C)NC(=O)[C@H](C)NC(=O)[C@H](CCCNC(=N)N)NC(=O)[C@H](C)NC(=O)[C@H](CO)NC(=O)[C@H](CC(=O)O)NC(=O)[C@H](CC(=O)O)NC(=O)[C@H](Cc1c[nH]c2ccccc12)NC(=O)[C@H](C)NC(=O)CCCC[C@@H]1SC[C@@H]2NC(=O)N[C@@H]21)C(C)C)[C@@H](C)O)C(=O)O [LPAP] (Biotin-AWDDSARAAGGQGLHVTAL-OH; C-terminus assumed)
- Classification [5]: 5 (A450 nm of 4 more than 2× repeated)

SMILES: CC[C@H](C)[C@H](NC(=O)[C@H](CCC(N)=O)NC(=O)CCCC[C@@H]1SC[C@@H]2NC(=O)N[C@@H]21)C(=O)N[C@@H](CO)C(=O)N1CCC[C@H]1C(=O)NCC(=O)NCC(=O)N[C@@H](CC(C)C)C(=O)N[C@@H](CCC(=O)O)C(=O)N1CCC[C@H]1C(=O)N1CCC[C@H]1C(=O)N[C@@H](CO)C(=O)N[C@@H](CCC(=O)O)C(=O)N[C@@H](CCCCN)C(=O)N[C@@H](Cc1c[nH]cn1)C(=O)N[C@@H](Cc1ccccc1)C(=O)N[C@@H](CCCNC(=N)N)C(=O)N[C@@H](CCC(=O)O)C(=O)N[C@H](C(=O)N[C@@H](CCC(=O)O)C(=O)N[C@H](C(=O)O)C(C)C)[C@@H](C)O [Tax]
- Kd ([3]; Kd, TIP-1 plated at 0.1 ug/ml): 5 nM
- binding to TIP-1 relative to CD95 (comparison of dissociation constants) ([3]; Tax:TIP-1 versus CD95:TIP-1): > 3000 fold
- OD (maximum absorbance) ([3]; TIP-1 plated at 0.1 ug/ml): 3.3 and 2.1
- affinity for GST-TIP-1 relative to CD95 (FIG. 2A) ([3]; equivalent peptide concentrations, equivalent amount of GST-TIP-1): much higher affinity than does CD95
- Kd ([4]; Kd, DLG1(1-2) plated at 0.1 ug/ml): 130 nM and 200 nM
- Classification [5]: 5 (A450 nm of 4 more than 2× repeated)
